Data from patent US12110276B2 (Genentech, Inc., priority 2021, dated 2024).
Read-outs that look alike come from different tables or passages of the source.

What was measured:
TEAD1 = TEAD1 (Homo sapiens (Human), UniProt P28347); experiment: TR-FRET lipid pocket probe competition assay (Lipid HTRF), TEAD1; format: binding; conditions: 4 hours pre-incubation; read-out: Lipid HTRF TEAD1 IC50;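 also: His-tagged TEAD1 with biotinylated probe, detected via Europium anti-His and XL665 streptavidin, probe displacement lowers TR-FRET signal, IC50 from four-parameter nonlinear fit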
TEAD3 = TEAD3 (Homo sapiens (Human), UniProt Q99594); experiment: TR-FRET lipid pocket probe competition assay (Lipid HTRF), TEAD3; format: binding; conditions: 4 hours pre-incubation; read-out: Lipid HTRF TEAD3 IC50
TEAD4 = TEAD4 (Homo sapiens (Human), UniProt Q15561); experiment: TR-FRET lipid pocket probe competition assay (Lipid HTRF), TEAD4; format: binding; conditions: 4 hours pre-incubation; read-out: Lipid HTRF TEAD4 IC50;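 also: His-tagged TEAD4 with biotinylated lipid-pocket probe, read by Europium anti-His and XL665 streptavidin, where probe displacement lowers the TR-FRET signal, IC50 from a four-parameter fit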
Experimental: His-tagged TEAD proteins are pre-incubated with TEAD project compounds for 30 minutes or 4 hours at room temperature. Biotinylated lipid pocket probes are then added to the TEAD/Compound mixture and incubated for 60 minutes at room temperature. The lipid pocket probe competes with the test compound for the TEAD lipid pocket until equilibrium is reached. After 60 minutes, Europium labelled anti-His (Perkin Elmer #AD0110) and XL665 labelled streptavidin (CIS Bio 610SAXAC) are added to the TEAD/test compound/lipid pocket mixture and incubated for 30 minutes or 4 hours. […] If a TEAD lipid pocket binder such as binds and displaces the lipid pocket probe, the disruption of the TEAD:probe interaction results in a decrease in TR-FRET signal. The potency of compounds as TEAD lipid pocket binders is determined by IC50 value generated using a non-linear 4 parameter curve fit.

TEAD2 [1] = target: T1, TEAD2 (Homo sapiens (Human), UniProt Q15562); experiment: biochemical;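 also: TR-FRET competition assay with His-tagged TEAD protein and a biotinylated lipid pocket probe, compound pre-incubated 30 min or 4 h at room temperature, displacement lowers signal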
Experimental: (§1) His-tagged TEAD proteins are pre-incubated with TEAD project compounds for 30 minutes or 4 hours at room temperature. Biotinylated lipid pocket probes are then added to the TEAD/Compound mixture and incubated for 60 minutes at room temperature. The lipid pocket probe competes with the test compound for the TEAD lipid pocket until equilibrium is reached. After 60 minutes, Europium labelled anti-His (Perkin Elmer #AD0110) and XL665 labelled streptavidin (CIS Bio 610SAXAC) are added to the TEAD/test compound/lipid pocket mixture and incubated for 30 minutes or 4 hours. TR-FRET values are then measured using an EnVision multi-label plate reader (Perkin Elmer Cat #2104-0010A.) If the lipid pocket probe binds to TEAD as expected, a TR-FRET signal results from the proximity of anti-His Eu and XL665. If a TEAD lipid pocket binder such as binds and displaces the lipid pocket probe, the disruption of the TEAD:probe interaction results in a decrease in TR-FRET signal. The potency of compounds as TEAD lipid pocket binders is determined by IC50 value generated using a non-linear 4 parameter curve fit.

TEAD2 [2] = target: T1, TEAD2
Experimental: as §1

Sequence of TEAD3 (Q99594 whole entry, species assumed): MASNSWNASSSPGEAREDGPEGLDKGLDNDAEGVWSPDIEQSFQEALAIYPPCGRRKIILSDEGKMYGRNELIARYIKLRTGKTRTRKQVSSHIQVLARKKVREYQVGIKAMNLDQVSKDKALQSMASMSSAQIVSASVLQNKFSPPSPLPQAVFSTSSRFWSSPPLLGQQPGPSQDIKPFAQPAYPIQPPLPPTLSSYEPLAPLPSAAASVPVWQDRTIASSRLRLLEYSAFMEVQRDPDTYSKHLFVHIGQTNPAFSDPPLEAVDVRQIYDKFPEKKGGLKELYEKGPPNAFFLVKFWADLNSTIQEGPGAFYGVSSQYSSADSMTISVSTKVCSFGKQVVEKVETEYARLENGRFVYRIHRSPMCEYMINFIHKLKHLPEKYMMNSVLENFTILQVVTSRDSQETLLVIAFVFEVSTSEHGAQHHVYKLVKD
Sequence of TEAD1 (P28347 whole entry, species assumed): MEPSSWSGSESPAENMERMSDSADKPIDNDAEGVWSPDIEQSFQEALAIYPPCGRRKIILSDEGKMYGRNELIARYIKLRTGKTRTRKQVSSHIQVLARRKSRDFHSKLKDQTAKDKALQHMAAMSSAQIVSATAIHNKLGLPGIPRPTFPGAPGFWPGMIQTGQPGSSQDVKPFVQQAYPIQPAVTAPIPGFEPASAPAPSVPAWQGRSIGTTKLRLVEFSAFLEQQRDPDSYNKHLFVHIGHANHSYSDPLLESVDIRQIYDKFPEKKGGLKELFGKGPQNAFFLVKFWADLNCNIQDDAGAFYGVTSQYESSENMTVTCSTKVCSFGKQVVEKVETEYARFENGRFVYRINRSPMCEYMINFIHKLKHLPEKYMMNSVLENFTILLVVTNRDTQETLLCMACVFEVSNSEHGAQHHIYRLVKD
T1 sequence (Q15562 whole entry, species assumed): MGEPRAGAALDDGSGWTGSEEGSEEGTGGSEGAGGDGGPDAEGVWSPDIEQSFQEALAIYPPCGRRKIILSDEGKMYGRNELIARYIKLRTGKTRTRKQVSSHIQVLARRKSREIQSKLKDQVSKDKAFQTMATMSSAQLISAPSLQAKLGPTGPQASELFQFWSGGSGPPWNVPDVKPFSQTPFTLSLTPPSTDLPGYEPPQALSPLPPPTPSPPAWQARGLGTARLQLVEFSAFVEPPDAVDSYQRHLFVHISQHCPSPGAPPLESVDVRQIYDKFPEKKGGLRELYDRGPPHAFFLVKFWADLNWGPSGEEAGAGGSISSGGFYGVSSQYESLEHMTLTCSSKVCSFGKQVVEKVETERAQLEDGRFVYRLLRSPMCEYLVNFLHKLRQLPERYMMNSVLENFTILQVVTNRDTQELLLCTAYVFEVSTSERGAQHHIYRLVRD
Sequence of TEAD4 (Q15561 whole entry, species assumed): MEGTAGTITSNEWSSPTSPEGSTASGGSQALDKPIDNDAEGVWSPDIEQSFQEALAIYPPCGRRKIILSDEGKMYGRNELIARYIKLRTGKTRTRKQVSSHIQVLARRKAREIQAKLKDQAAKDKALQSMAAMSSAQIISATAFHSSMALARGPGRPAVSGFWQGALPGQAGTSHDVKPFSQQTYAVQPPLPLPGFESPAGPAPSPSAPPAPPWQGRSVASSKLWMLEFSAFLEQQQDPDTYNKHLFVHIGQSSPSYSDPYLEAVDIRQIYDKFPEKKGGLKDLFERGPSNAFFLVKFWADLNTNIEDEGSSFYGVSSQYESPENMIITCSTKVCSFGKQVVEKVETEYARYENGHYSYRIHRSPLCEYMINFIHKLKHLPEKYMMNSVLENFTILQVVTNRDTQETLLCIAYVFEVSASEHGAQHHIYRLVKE

Compound	IC50 (TEAD1) [nM]	IC50 (TEAD3) [nM]	IC50 (TEAD4) [nM]	IC50 (TEAD2 [1]) [nM]	IC50 (TEAD2 [2]) [nM]
C=CC(=O)NCc1nn(-c2ccc(S(F)(F)(F)(F)F)cc2)c2nccc([C@H](O)CO)c12 (stereo in doubt) [Compound 23, N-((4-(1,2-dihydroxyethyl)-1-(4-(pentafluoro-λ^6-sulfanyl)phenyl)-1H-pyrazolo[3,4-b]pyridin-3-yl)methyl)acrylamide]	43	890	17	66	
C=CC(=O)NCc1nn(-c2ccc(S(F)(F)(F)(F)F)cc2)c2nccc([C@@H](O)CO)c12 (stereo in doubt) [Compound 27, N-((4-(1,2-dihydroxyethyl)-1-(4-(pentafluoro-λ^6-sulfanyl)phenyl)-1H-pyrazolo[3,4-b]pyridin-3-yl)methyl)acrylamide]	290	1100	71	270	
C=CC(=O)NCc1nn(-c2cccc(OC(F)(F)F)c2)c2nccc([C@H](O)CO)c12 (stereo in doubt) [Compound 73, N-((4-(1,2-dihydroxyethyl)-1-(3-(trifluoromethoxy)phenyl)-1H-pyrazolo[3,4-b]pyridin-3-yl)methyl)acrylamide]	870	290	33	430	
C=CC(=O)NCc1nn(-c2ccc(C(F)(F)F)cc2)c2nccc([C@@H](O)CO)c12 (stereo in doubt) [Compound 88, N-((4-(1,2-dihydroxyethyl)-1-(4-(trifluoromethyl)phenyl)-1H-pyrazolo[3,4-b]pyridin-3-yl)methyl)acrylamide]	80	2100	43	150	
C=CC(=O)NCc1nn(-c2ccc(C(F)(F)F)cc2)c2nccc([C@H](O)CO)c12 (stereo in doubt) [Compound 100, N-((4-(1,2-dihydroxyethyl)-1-(4-(trifluoromethyl)phenyl)-1H-pyrazolo[3,4-b]pyridin-3-yl)methyl)acrylamide]	480	720	100	520	
C=CC(=O)NCc1nn(-c2cccc(OC(F)(F)F)c2)c2nccc([C@@H](O)CO)c12 (stereo in doubt) [Compound 131, N-((4-(1,2-dihydroxyethyl)-1-(3-(trifluoromethoxy)phenyl)-1H-pyrazolo[3,4-b]pyridin-3-yl)methyl)acrylamide]	290	2900	30	89	
C=CC(=O)NCc1nn(-c2ccc(OC(F)(F)F)cc2)c2nccc(-c3cnn(C(C)C)c3)c12 [Compound 170, N-[[4-(1-isopropylpyrazol-4-yl)-1-[4-(trifluoromethoxy)phenyl]pyrazolo[3,4-b]pyridin-3-yl]methyl]prop-2-enamide]	120	26600	92.8		355
C=CC(=O)NCc1nn(-c2ccc(OC(F)(F)F)cc2)c2nccc(-c3cnn(C4COC4)c3)c12 [Compound 171, N-[[4-[1-(oxetan-3-yl)pyrazol-4-yl]-1-[4-(trifluoromethoxy)phenyl]pyrazolo[3,4-b]pyridin-3-yl]methyl]prop-2-enamide]	60	810	29		330
C=CC(=O)NCc1nn(-c2ccc(OC(F)(F)F)cc2)c2nccc(-c3cnn(CCN(C)C)c3)c12 [Compound 172, N-[[4-[1-[2-(dimethylamino)ethyl]pyrazol-4-yl]-1-[4-(trifluoromethoxy)phenyl]pyrazolo[3,4-b]pyridin-3-yl]methyl]prop-2-enamide]	470	19000	150		810
C=CC(=O)NCc1nn(-c2ccc(OC(F)(F)F)cc2)c2nccc(-c3cnn(C4CC4)c3)c12 [Compound 173, N-((4-(1-cyclopropyl-1H-pyrazol-4-yl)-1-(4-(trifluoromethoxy)phenyl)-1H-pyrazolo[3,4-b]pyridin-3-yl)methyl)acrylamide]	86	26200	52.5		382
C=C(F)C(=O)N1CC(c2nn(-c3ccc(OC(F)(F)F)cc3)c3nccc(-c4cnn(C5COC5)c4)c23)C1 [Compound 175, 2-fluoro-1-(3-(4-(1-(oxetan-3-yl)-1H-pyrazol-4-yl)-1-(4-(trifluoromethoxy)phenyl)-1H-pyrazolo[3,4-b]pyridin-3-yl)azetidin-1-yl)prop-2-en-1-one]	62	50000	45		420
C=C(F)C(=O)N1CC(c2nn(-c3ccc(OC(F)(F)F)cc3)c3nccc(-c4cnn(CCOC)c4)c23)C1 [Compound 176, 2-fluoro-1-(3-(4-(1-(2-methoxyethyl)-1H-pyrazol-4-yl)-1-(4-(trifluoromethoxy)phenyl)-1H-pyrazolo[3,4-b]pyridin-3-yl)azetidin-1-yl)prop-2-en-1-one]	46	50000	77		800
C=C(F)C(=O)N1CC(c2nn(-c3ccc(OC(F)(F)F)cc3)c3nccc(-c4cnn(C5CC5)c4)c23)C1 [Compound 177, 1-(3-(4-(1-cyclopropyl-1H-pyrazol-4-yl)-1-(4-(trifluoromethoxy)phenyl)-1H-pyrazolo[3,4-b]pyridin-3-yl)azetidin-1-yl)-2-fluoroprop-2-en-1-one]	86	50000	120		890
C=C(F)C(=O)N1CC(c2nn(-c3ccc(OC(F)(F)F)cc3)c3nccc(-c4cnn(C(C)C)c4)c23)C1 [Compound 178, 2-fluoro-1-(3-(4-(1-isopropyl-1H-pyrazol-4-yl)-1-(4-(trifluoromethoxy)phenyl)-1H-pyrazolo[3,4-b]pyridin-3-yl)azetidin-1-yl)prop-2-en-1-one]	87	50000	200		860
C=C(F)C(=O)N1CC(c2nn(-c3ccc(OC(F)(F)F)cc3)c3nccc(-c4cnn(CCS(C)(=O)=O)c4)c23)C1 [Compound 179, 2-fluoro-1-(3-(4-(1-(2-(methylsulfonyl)ethyl)-1H-pyrazol-4-yl)-1-(4-(trifluoromethoxy)phenyl)-1H-pyrazolo[3,4-b]pyridin-3-yl)azetidin-1-yl)prop-2-en-1-one]	32	50000	17		650
C=C(F)C(=O)N1CC(c2nn(-c3ccc(OC(F)(F)F)cc3)c3nccc(-c4cnn(CC(=O)N(C)C)c4)c23)C1 [Compound 180, 2-(4-(3-(1-(2-fluoroacryloyl)azetidin-3-yl)-1-(4-(trifluoromethoxy)phenyl)-1H-pyrazolo[3,4-b]pyridin-4-yl)-1H-pyrazol-1-yl)-N,N-dimethylacetamide]	43	50000	110		160
C=C(F)C(=O)N1CC(c2nn(-c3ccc(OC(F)(F)F)cc3)c3nccc(-c4cnn(CC(N)=O)c4)c23)C1 [Compound 181, 2-(4-(3-(1-(2-fluoroacryloyl)azetidin-3-yl)-1-(4-(trifluoromethoxy)phenyl)-1H-pyrazolo[3,4-b]pyridin-4-yl)-1H-pyrazol-1-yl)acetamide]	24	50000	37		62
C=C(F)C(=O)N1CC(c2nn(-c3ccc(OC(F)(F)F)cc3)c3nccc(-c4cn[nH]c4)c23)C1 [Compound 182, 1-(3-(4-(1H-pyrazol-4-yl)-1-(4-(trifluoromethoxy)phenyl)-1H-pyrazolo[3,4-b]pyridin-3-yl)azetidin-1-yl)-2-fluoroprop-2-en-1-one]	25	440	13		130
C=C(F)C(=O)N1CC(c2nn(-c3ccc(OC(F)(F)F)cc3Cl)c3nccc(CO)c23)C1 [Compound 183, 1-(3-(1-(2-chloro-4-(trifluoromethoxy)phenyl)-4-(hydroxymethyl)-1H-pyrazolo[3,4-b]pyridin-3-yl)azetidin-1-yl)-2-fluoroprop-2-en-1-one]	180	1100	110		1800
C=C(F)C(=O)N1CC(c2nn(-c3ccc(OC(F)(F)F)cc3C)c3nccc(CO)c23)C1 [Compound 184, 2-fluoro-1-(3-(4-(hydroxymethyl)-1-(2-methyl-4-(trifluoromethoxy)phenyl)-1H-pyrazolo[3,4-b]pyridin-3-yl)azetidin-1-yl)prop-2-en-1-one]	140	790	100		2300
C=C(F)C(=O)N1CC(c2nn(-c3ccc(OC(F)(F)F)cc3F)c3nccc(CO)c23)C1 [Compound 185, 2-fluoro-1-[3-[1-[2-fluoro-4-(trifluoromethoxy)phenyl]-4-(hydroxymethyl)pyrazolo[3,4-b]pyridin-3-yl]azetidin-1-yl]prop-2-en-1-one]	57	260	31		120
C=CC(=O)NCc1nn(-c2ccc(OC(F)(F)F)cc2)c2cccc(C#N)c12 [Compound 186, N-((4-cyano-1-(4-(trifluoromethoxy)phenyl)-1H-indazol-3-yl)methyl)acrylamide]	270	255	52.5		430
C=CC(=O)NCc1nn(-c2ccc(OC(F)(F)F)cc2)c2cccnc12 [Compound 187, N-((1-(4-(trifluoromethoxy)phenyl)-1H-pyrazolo[4,3-b]pyridin-3-yl)methyl)acrylamide]	91	950	55		1200
C=CC(=O)NCc1nn(-c2ccc(OC(F)(F)F)cc2)c2ncccc12 [Compound 188, N-((1-(4-(trifluoromethoxy)phenyl)-1H-pyrazolo[3,4-b]pyridin-3-yl)methyl)acrylamide]	7.2	150	7.3		84
